Results on 2 compounds are retold here after patent US20220332758A1, “PEPTIDE-BASED COMPOSITIONS AND METHODS FOR TREATING ALZHEIMER'S DISEASE” (Board of Regents, The Universityof Texas System, priority 2019, published 2022).

The structures appear in SMILES notation. “Also recorded” adds a separate entry of the source.

Assay [1] concerns the target T1, latent human 20S proteasome (Homo sapiens, UniProt P25787+P60900).
T1 construct: purified from erythrocytes; purchased Boston Biochem, Inc. or Enzo Life Sciences, Inc; host or cells: human erythrocytes
Put plainly: Chymotrypsin-like (ChT-L) activity of purified latent human 20S proteasome, Suc-LLVY-AMC substrate. To be noted: for activation of ChT-L activity of 20S proteasome (in words): in vitro, latent human 20S. In kind it is biochemical. As for the experimental part:
Determination of Proteasome Activity. Human housekeeping core (20S) proteasome purified from erythrocytes was purchased from Boston Biochem, Inc. (Cambridge, Mass.) or from Enzo Life Sciences, Inc. (Farmingdale, N.Y.). […] The stock proteasome was diluted to 0.2 mg/mL working solution in “dilution buffer” (50 mM Tris/HCl, pH 8, 20% glycerol). The following model peptide substrates, releasing fluorescent 7-amino-4-methylcoumarin (AMC) reporter group after cleavage, were used: succinyl-LeuLeuValTyr-AMC (SEQ ID NO: 14) (for the ChT-L peptidase; SucLLVY-AMC; Bachem Bioscience Inc., Philadelphia, Pa.), butoxycarbonyl-LeuArgArg-AMC (T-L; Bachem Bioscience Inc., Philadelphia, Pa.) and carbobenzoxy-LeuLeuGlu-AMC (PGPH; Enzo Life Sciences Inc., Farmingdale, N.Y.). The substrates were used at concentration of 50 μM (ChT-L) or 100 μM (T-L, PGPH). Free AMC (Sigma-Aldrich, St. Louis, Mo.) was used as the standard. […] The TAT peptides, Rpt peptides (except Rpt6) and the peptide substrates were dissolved in anhydrous dimethylsulfoxide (DMSO; Sigma-Aldrich, St. Louis, Mo.) and such stock solutions were stored at −20° C. The total concentration of DMSO in final reaction mixtures never exceeded 3% (vol/vol). The Trp (tryptophan)-containing Rpt6 peptide was dissolved in ultrapure water and stored at −20° C., protected from light. The reaction was carried out in 96-well plates, in 100 μL of reaction mixture that consisted of 45 mM Tris/HCl, pH 8, 100 mM KCl, 1 mM EDTA (reaction buffer) and a fluorogenic peptide substrate, to which 200 ng (nearly […]) of proteasome were added. […] The proteasome was preincubated with a substrate for 10 min at room temperature, then 1 μL of DMSO or a desired concentration of a TAT peptide in 1 μL of DMSO were added. After mixing, the plate was transferred to a Fluoroskan Ascent plate reader (Thermo Fisher Scientific Inc., Waltham, Mass.) for 1 h (37° C.), with fluorescence readouts once per minute. To test the competition with Rpt derived peptides, the Rpt peptide (1 μM) was added before the TAT peptide to the reaction mixture. The reaction rates were calculated from a linear segment of kinetic curves constructed from measurements in 1-min intervals. Reaction rates were calculated using a linear fit performed with the Slope Analyser and Enzyme Kinetics applications launched within Origin Pro 2019 (OriginLab Corporation, Northampton, Mass.). […] The data are presented as mean±SD from at least three independent experiments.
Statistical Analysis. Experiments were performed at least in three independent replicates. The results are presented as a mean±SD. A two-tailed t-test was applied to compare the means. The comparisons were allowing for unequal variances with a Welch correction. Abundance of proteasome conformers was compared with the chi squared test and two-sample proportion test. A significance level was set at 0.05. Statistical analysis was performed using statistical procedures offered by OriginPro 2019 (OriginLabs, Northampton, Mass.). Reaction rates were calculated from a smoothed linear segment of kinetic traces using OriginPro 2019. Response curves (activity vs. compound concentration) were fitted with a nonlinear fitting application of OriginPro 2019. The AC50 and maximum activation fold was calculated based on the equations implemented to fit the response curves.

Assay [2] concerns the target T2, latent 20S core proteasome, PGPH peptidase (Homo sapiens, UniProt P25787+P60900).
T2 construct: purified from erythrocytes; purchased Boston Biochem, Inc. or Enzo Life Sciences, Inc; host or cells: human erythrocytes
The experiment in a line: Post glutamyl peptide hydrolyzing (PGPH) peptidase activity of the core proteasome. In kind it is biochemical. As for the experimental part: Determination of Proteasome Activity. Human housekeeping core (20S) proteasome purified from erythrocytes was purchased from Boston Biochem, Inc. (Cambridge, Mass.) or from Enzo Life Sciences, Inc. (Farmingdale, N.Y.). Multiple batches of the proteasomes were used and performed reproducibly. The stock proteasome was diluted to 0.2 mg/mL working solution in “dilution buffer” (50 mM Tris/HCl, pH 8, 20% glycerol). The following model peptide substrates, releasing fluorescent 7-amino-4-methylcoumarin (AMC) reporter group after cleavage, were used: succinyl-LeuLeuValTyr-AMC (SEQ ID NO: 14) (for the ChT-L peptidase; SucLLVY-AMC; Bachem Bioscience Inc., Philadelphia, Pa.), butoxycarbonyl-LeuArgArg-AMC (T-L; Bachem Bioscience Inc., Philadelphia, Pa.) and carbobenzoxy-LeuLeuGlu-AMC (PGPH; Enzo Life Sciences Inc., Farmingdale, N.Y.). […] After mixing, the plate was transferred to a Fluoroskan Ascent plate reader (Thermo Fisher Scientific Inc., Waltham, Mass.) for 1 h (37° C.), with fluorescence readouts once per minute. […] The reaction rates were calculated from a linear segment of kinetic curves constructed from measurements in 1-min intervals. Reaction rates were calculated using a linear fit performed with the Slope Analyser and Enzyme Kinetics applications launched within Origin Pro 2019 (OriginLab Corporation, Northampton, Mass.). […]

For `N=C(N)NCCCC(NC(=O)CN)C(=O)NC(CCCCN)C(=O)NC(CCCCN)C(=O)NC(CCCNC(=N)N)C(=O)NC(CCCNC(=N)N)C(=O)NC(CCC(N)=O)C(=O)N1Cc2ccccc2C[C@H]1C(=O)N1C(C(=O)NC(CCCNC(N)N)C(=O)N2CCCC2C(=O)NC(CO)C(=O)O)CC2CCCCC21` (some centres unmarked) [(5), GRKKRRQ-TOD-RPS], the AC50 in assay [1] (20S proteasome AC50, Table 1, ChT-L activity, Suc-LLVY-MCA, purified human housekeeping 20S) worked out at 221 nM; in assay [1] (AC50 [nM] ± SE, Table 3, purified 20S proteasome in Tris/HCl buffer pH 8, ChT-L model substrate) it was 220 ± 89 nM. In assay [1], the “activation of ChT-L activity of 20S proteasome (in words)” value is on record as “strongly enhance”. Further, in assay [2], the “effect on PGPH activity” value was “weak inhibitory effects; also recorded: did not seem to significantly affect”.

With `NCCCCC(N)C(=O)NC(CCCCN)C(=O)NC(CCCCN)C(=O)Nc1cc(NC(=O)C(CCCCN)NC(=O)C(CCCCN)NC(=O)C(N)CCCCN)cc(C(=O)NC(CCCCN)C(=O)NC(CCCCN)C(=O)NC(CCCCN)C(=O)O)c1` (centres unmarked) [(8)], the “activation of ChT-L activity of 20S proteasome (in words)” value was “one of the highest activation folds for the 20S core and one of the lowest AC50; also recorded: highest fold of activation potential and a low AC50” in assay [1]; “one of the best proteasome activators” in assay [1] (listed as Tat1-Den); “strongly enhance” in assay [1] (listed as Tat-Den). Moreover, the “effect on PGPH activity” value in assay [2] was “weak inhibitory effects; also recorded: did not seem to significantly affect”.

The AC50 is the midpoint of the concentration-response curve, whichever way the signal moves. Low readings indicate greater potency, high ones weaker potency.
